What was measured:
STAT5A = biological target: T1, STAT5A (Homo sapiens, UniProt P42229); test: Fluorescence polarization (FP) binding assay, STAT5A; conditions: FP competition, 5 nM fluorescein-labeled tracer, 200 nM protein, PBS pH7.4
T1 sequence (P42229 1-794): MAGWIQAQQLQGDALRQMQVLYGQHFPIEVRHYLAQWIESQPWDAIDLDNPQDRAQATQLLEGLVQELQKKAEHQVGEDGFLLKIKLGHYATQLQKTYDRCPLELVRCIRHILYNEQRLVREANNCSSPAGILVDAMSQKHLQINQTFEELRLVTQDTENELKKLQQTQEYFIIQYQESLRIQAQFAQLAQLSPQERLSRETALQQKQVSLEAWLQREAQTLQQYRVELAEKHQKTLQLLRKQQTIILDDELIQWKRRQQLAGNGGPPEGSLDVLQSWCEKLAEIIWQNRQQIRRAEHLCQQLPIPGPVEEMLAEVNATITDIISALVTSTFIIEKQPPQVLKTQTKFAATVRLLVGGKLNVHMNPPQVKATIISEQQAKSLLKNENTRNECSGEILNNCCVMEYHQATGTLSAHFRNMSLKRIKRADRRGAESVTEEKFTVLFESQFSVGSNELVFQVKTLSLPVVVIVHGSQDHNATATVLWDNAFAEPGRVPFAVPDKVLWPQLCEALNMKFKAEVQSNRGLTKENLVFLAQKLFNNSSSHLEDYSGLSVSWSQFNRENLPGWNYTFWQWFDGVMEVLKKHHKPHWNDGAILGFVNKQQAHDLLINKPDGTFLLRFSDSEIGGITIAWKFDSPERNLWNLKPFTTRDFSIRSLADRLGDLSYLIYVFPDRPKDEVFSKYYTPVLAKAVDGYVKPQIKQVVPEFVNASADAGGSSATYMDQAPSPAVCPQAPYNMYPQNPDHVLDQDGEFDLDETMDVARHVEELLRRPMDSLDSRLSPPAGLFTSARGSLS
In short: (§1)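 Fluorescence polarization is read after STAT5 or STAT6 protein (200 nM) and a fluorescein-labeled tracer (5 nM) equilibrate for 1 h at room temperature in DTT-containing PBS pH 7.4 with BGG and Tween-20. Inhibition constants are obtained by nonlinear curve fitting.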

STAT6 protein = biological target: T2, STAT6 protein (Homo sapiens, UniProt P42226); test: Fluorescence polarization (FP) binding assay, STAT6; conditions: FP competition, 5 nM fluorescein-labeled tracer, 200 nM protein, PBS pH7.4; read-out: Binding STAT6
T2 sequence (P42226 1-847): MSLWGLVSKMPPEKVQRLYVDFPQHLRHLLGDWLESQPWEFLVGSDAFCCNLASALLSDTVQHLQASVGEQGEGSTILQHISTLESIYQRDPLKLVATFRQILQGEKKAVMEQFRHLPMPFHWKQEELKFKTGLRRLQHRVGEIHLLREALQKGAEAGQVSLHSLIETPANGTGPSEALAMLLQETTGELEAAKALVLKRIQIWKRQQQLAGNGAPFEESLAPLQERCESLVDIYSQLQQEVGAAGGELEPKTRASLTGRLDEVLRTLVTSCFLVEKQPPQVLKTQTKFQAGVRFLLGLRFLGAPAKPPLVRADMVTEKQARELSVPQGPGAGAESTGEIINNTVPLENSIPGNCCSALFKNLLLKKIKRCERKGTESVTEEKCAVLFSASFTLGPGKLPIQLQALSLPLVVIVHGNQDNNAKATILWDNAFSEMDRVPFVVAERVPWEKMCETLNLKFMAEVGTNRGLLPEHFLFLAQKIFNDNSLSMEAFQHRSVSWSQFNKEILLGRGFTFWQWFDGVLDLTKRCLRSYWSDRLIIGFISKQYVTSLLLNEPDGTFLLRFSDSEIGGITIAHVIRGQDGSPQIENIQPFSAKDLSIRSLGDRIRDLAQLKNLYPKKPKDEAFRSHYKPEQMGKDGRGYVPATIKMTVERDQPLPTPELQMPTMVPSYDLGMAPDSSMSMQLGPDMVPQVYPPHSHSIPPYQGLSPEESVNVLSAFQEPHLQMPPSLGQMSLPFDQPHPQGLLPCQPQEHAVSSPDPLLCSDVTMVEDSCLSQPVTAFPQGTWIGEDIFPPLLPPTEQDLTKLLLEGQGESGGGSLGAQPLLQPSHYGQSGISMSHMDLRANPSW
In short: as §1

Compound	Ki (STAT5A)	Ki (STAT6 protein)
CC(C)(C)[C@H](NC(=O)c1cc2cc(C(F)(F)P(=O)(O)O)ccc2s1)C(=O)N1CCC[C@H]1C(=O)N1CCCC12CCCCC2 [Compound 60, ((2-(((S)-1-((S)-2-(1-azaspiro[4.5]decane-1-carbonyl)pyrrolidin-1-yl)-3,3-dimethyl-1-oxobutan-2-yl)carbamoyl)benzo[b]thiophen-5-yl)difluoromethyl)phosphonic acid]	> 10 µM	1 to 10 µM
CC(C)(C)[C@H](NC(=O)c1cc2cc(C(F)(F)P(=O)(O)O)ccc2s1)C(=O)N1CCC[C@H]1C(=O)N(CCC(=O)O)c1ccc(Br)cc1 [Compound 46, 3-((S)-N-(4-bromophenyl)-1-((S)-2-(5-(difluoro(phosphono)methyl)benzo[b]thiophene-2-carboxamido)-3,3-dimethylbutanoyl)pyrrolidine-2-carboxamido)propanoic acid]	0.1 to 1 µM	0.1 to 1 µM
CC(=O)N1CCN(C(=O)[C@@H](NC(=O)c2cc3cc(C(F)(F)P(=O)(O)O)ccc3s2)C(C)(C)C)[C@H](C(=O)N2CCC[C@H](c3ccccc3)C2)C1 [Compound 175, ((2-(((S)-1-((S)-4-acetyl-2-((R)-3-phenylpiperidine-1-carbonyl)piperazin-1-yl)-3,3-dimethyl-1-oxobutan-2-yl)carbamoyl)benzo[b]thiophen-5-yl)difluoromethyl)phosphonic acid]	1 to 10 µM	0.1 to 1 µM
CCCCC(=O)N1CC[C@H]2CN(C(=O)[C@@H]3CCCN3C(=O)[C@@H](NC(=O)c3cc4cc(C(F)(F)P(=O)(O)O)ccc4s3)C(C)(C)C)C[C@H]21 [Compound 96, ((2-(((S)-3,3-dimethyl-1-oxo-1-((S)-2-((3aS,6aS)-1-pentanoyloctahydropyrrolo[3,4-b]pyrrole-5-carbonyl)pyrrolidin-1-yl)butan-2-yl)carbamoyl)benzo[b]thiophen-5-yl)difluoromethyl)phosphonic acid]	> 10 µM	> 10 µM
CC(C)(C)[C@H](NC(=O)c1cc2cc(C(F)(F)P(=O)(O)O)ccc2s1)C(=O)N1C[C@H](Oc2ccc3ccccc3c2)C[C@H]1C(=O)Nc1ncc(-c2ccccc2)s1 [Compound 210, ((2-(((S)-3,3-dimethyl-1-((2S,4R)-4-(naphthalen-2-yloxy)-2-((5-phenylthiazol-2-yl)carbamoyl)pyrrolidin-1-yl)-1-oxobutan-2-yl)carbamoyl)benzo[b]thiophen-5-yl)difluoromethyl)phosphonic acid]	1 to 10 µM	1 to 10 µM
CC(C)(C)[C@H](NC(=O)c1cc2cc(C(F)(F)P(=O)(O)O)ccc2s1)C(=O)N1C[C@H](OCc2ccccc2)C[C@H]1C(=O)N1Cc2ccccc2C1 [Compound 202, ((2-(((S)-1-((2S,4R)-4-(benzyloxy)-2-(isoindoline-2-carbonyl)pyrrolidin-1-yl)-3,3-dimethyl-1-oxobutan-2-yl)carbamoyl)benzo[b]thiophen-5-yl)difluoromethyl)phosphonic acid]	1 to 10 µM	1 to 10 µM
CC(C)(C)[C@H](NC(=O)c1cc2cc(C(F)(F)P(=O)(O)O)ccc2[nH]1)C(=O)N1CCC[C@H]1C(=O)Nc1ncc(-c2ccccc2)s1 [Compound 31, ((2-(((S)-3,3-dimethyl-1-oxo-1-((S)-2-((5-phenylthiazol-2-yl)carbamoyl)pyrrolidin-1-yl)butan-2-yl)carbamoyl)-1H-indol-5-yl)difluoromethyl)phosphonic acid]	0.1 to 1 µM	> 10 µM
CC(C)(C)[C@H](NC(=O)c1cc2cc(C(F)(F)P(=O)(O)O)ccc2[nH]1)C(=O)N1CCC[C@H]1C(=O)N1CCN(c2ccccc2)CC1 [Compound 13, ((2-(((S)-3,3-dimethyl-1-oxo-1-((S)-2-(4-phenylpiperazine-1-carbonyl)pyrrolidin-1-yl)butan-2-yl)carbamoyl)-1H-indol-5-yl)difluoromethyl)phosphonic acid]	> 10 µM	1 to 10 µM
CC(C)(C)[C@H](NC(=O)c1cc2cc(C(F)(F)P(=O)(O)O)ccc2s1)C(=O)N1CCC[C@H]1C(=O)N1CCC2(CCCCCC2)C1 [Compound 62, ((2-(((S)-1-((S)-2-(2-azaspiro[4.6]undecane-2-carbonyl)pyrrolidin-1-yl)-3,3-dimethyl-1-oxobutan-2-yl)carbamoyl)benzo[b]thiophen-5-yl)difluoromethyl)phosphonic acid]	> 10 µM	1 to 10 µM

Other lines, results leading:

Ki (STAT5A)	Ki (STAT6 protein)	Compound
1 to 10 µM	0.1 to 1 µM	CC(C)(C)[C@H](NC(=O)c1cc2cc(C(F)(F)P(=O)(O)O)ccc2s1)C(=O)N1CCC[C@H]1C(=O)N1CCS(=O)(=O)[C@H](c2ccccc2)C1 [Compound 135, ((2-(((S)-1-((S)-2-((R)-1,1-dioxido-2-phenylthiomorpholine-4-carbonyl)pyrrolidin-1-yl)-3,3-dimethyl-1-oxobutan-2-yl)carbamoyl)benzo[b]thiophen-5-yl)difluoromethyl)phosphonic acid]
> 10 µM	0.1 to 1 µM	CC(C)(C)[C@H](NC(=O)c1cc2cc(C(F)(F)P(=O)(O)O)ccc2s1)C(=O)N1CCC[C@H]1C(=O)N1CCOC(c2ccccn2)C1 (stereo partly drawn) [Compound 140, ((2-(((2S)-3,3-dimethyl-1-oxo-1-((2S)-2-(2-(pyridin-2-yl)morpholine-4-carbonyl)pyrrolidin-1-yl)butan-2-yl)carbamoyl)benzo[b]thiophen-5-yl)difluoromethyl)phosphonic acid]
> 10 µM	0.1 to 1 µM	CC(C)(C)[C@H](NC(=O)c1cc2cc(C(F)(F)P(=O)(O)O)ccc2s1)C(=O)N1CCC[C@H]1C(=O)N1CCOC(c2ccc(F)cc2)C1 (stereo partly drawn) [Compound 102, (difluoro(2-(((2S)-1-((2S)-2-(2-(4-fluorophenyl)morpholine-4-carbonyl)pyrrolidin-1-yl)-3,3-dimethyl-1-oxobutan-2-yl)carbamoyl)benzo[b]thiophen-5-yl)methyl)phosphonic acid]
> 10 µM	1 to 10 µM	O=C(N[C@H](C(=O)N1CCC[C@H]1C(=O)N1CCO[C@@H](c2ccccc2)C1)C1CC1)c1cc2cc(C(F)(F)P(=O)(O)O)ccc2s1 [Compound 154, ((2-(((S)-1-cyclopropyl-2-oxo-2-((S)-2-((S)-2-phenylmorpholine-4-carbonyl)pyrrolidin-1-yl)ethyl)carbamoyl)benzo[b]thiophen-5-yl)difluoromethyl)phosphonic acid]
> 10 µM	1 to 10 µM	CC(C)(C)[C@H](NC(=O)c1cc2cc(C(F)(F)P(=O)(O)O)ccc2s1)C(=O)N1CCC[C@H]1C(=O)N1CCC(C(=O)O)C(c2ccccc2)C1 (stereo partly drawn) [Compound 123, 1-(((S)-2-(5-(difluoro(phosphono)methyl)benzo [b]thiophene-2-carboxamido)-3,3-dimethylbutanoyl)-L-prolyl)-3-phenylpiperidine-4-carboxylic acid]
1 to 10 µM	0.1 to 1 µM	CC(C)(C)[C@H](NC(=O)c1cc2cc(C(F)(F)P(=O)(O)O)ccc2s1)C(=O)N1CCC[C@H]1C(=O)N1CCCCC(c2ccccc2)C1 (stereo partly drawn) [Compound 125, ((2-(((2S)-3,3-dimethyl-1-oxo-1-((2S)-2-(3-phenylazepane-1-carbonyl)pyrrolidin-1-yl)butan-2-yl)carbamoyl)benzo[b]thiophen-5-yl)difluoromethyl)phosphonic acid]

Source: patent US20230295200A1 (REGENTS OF THE UNIVERSITY OF MICHIGAN, priority 2022, published 2023)
